Where two headings read alike, the source gives them in different places.
Columns and labels:
[1] = test system: human iPSC-derived 3D BrainSpheres; assay: BrainSphere MEA assay (HD-MEA, 13-day exposure, concentration-response); format: cell-based; details: for Difference of minimum potency between BrainSphere MEA assay and rNFA: 5th percentile of AC50 values by chemical, above 0.5 = more potent in the rNFA; for EC (benchmark response 1.349 SD): 312 h; for AC50: concentration at 50% maximal activity, Supplement 3 prints it also for curves with hit call 0; for Percent active: metrics active out of the total number of metrics screened; for Hits: total number of active endpoints out of 10 MEA activity metrics, 13-day exposure; for hitc Mean.Spheroid.Burst.Duration: key: 1 (active); 0 (inactive); for hitc Mean.Spheroid.Burst.ISI: key: 1 (active); 0 (inactive); for hitc Mean.Spheroid.Burst.Peak.Firing.Rate: key: 1 (active); 0 (inactive); for hitc Mean.Spheroid.Firing.Rate: key: 1 (active); 0 (inactive); for hitc Mean.Spheroid.IBI: key: 1 (active); 0 (inactive); for hitc Mean.Spheroid.Nonburst.ISI: key: 1 (active); 0 (inactive); for hitc Mean.Spheroid.Spikes.per.Burst.per.Electrode: key: 1 (active); 0 (inactive); for hitc Mean.Spheroid.Spikes.per.Burst: key: 1 (active); 0 (inactive); for hitc Spheroid.Burst.Frequency: key: 1 (active); 0 (inactive); for hitc Spheroid.Spike.Amplitude.90th.Percentile: key: 1 (active); 0 (inactive)
Method in brief: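 Recordings used a 5× RMS spike threshold and 600 s network scans of fixed electrode regions, each region clustered as one BrainSphere. Spheres had 7 weeks of differentiation and 48 h attachment on coated HD-MEA chips before day 0 of the 13-day concentration-response exposure. At least three independent plates were run.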

[2] = test system: co-culture of iPSC-derived excitatory and inhibitory neurons, and primary human astrocytes; parameters: method as in Bartmann et al. [2023]; details: ref Bartmann et al. [2023], cited from earlier work
[3] = test system: 2D rat cortical cultures; details: cited from earlier work
[4] = test system: 2D rat cortical cultures; details: cited from earlier work; remark: listed apart in the source
[5] = AUC over 13-day exposure, tcplfit2
[6] = Homo sapiens, 5th percentile across active AC50 values per chemical, read-out: Minimum potency
[7] = Homo sapiens, tcplfit2 BMD at benchmark response (1.349*SD of baseline controls), read-out: BMD Mean.Spheroid.Burst.ISI
[8] = Homo sapiens, tcplfit2 BMD at benchmark response (1.349*SD of baseline controls), read-out: BMD Mean.Spheroid.Nonburst.ISI
[9] = Homo sapiens, read-out: ac50 Mean.Spheroid.Burst.Duration
[10] = Homo sapiens, read-out: ac50 Mean.Spheroid.Burst.ISI
[11] = Homo sapiens, read-out: ac50 Mean.Spheroid.Burst.Peak.Firing.Rate
[12] = Homo sapiens, read-out: ac50 Mean.Spheroid.Firing.Rate
[13] = Homo sapiens, read-out: ac50 Mean.Spheroid.IBI
[14] = Homo sapiens, read-out: ac50 Mean.Spheroid.Nonburst.ISI
[15] = Homo sapiens, read-out: ac50 Mean.Spheroid.Spikes.per.Burst
[16] = Homo sapiens, read-out: ac50 Mean.Spheroid.Spikes.per.Burst.per.Electrode
[17] = Homo sapiens, read-out: ac50 Spheroid.Burst.Frequency
[18] = Homo sapiens, read-out: ac50 Spheroid.Spike.Amplitude.90th.Percentile
[19] = Homo sapiens, mean across active AC50 values per chemical, read-out: Mean potency
[20] = read-out: ac50 Mean.Spheroid.Burst.Duration
[21] = read-out: ac50 Mean.Spheroid.Burst.ISI
[22] = read-out: ac50 Mean.Spheroid.Firing.Rate
[23] = read-out: ac50 Mean.Spheroid.IBI
[24] = read-out: ac50 Mean.Spheroid.Spikes.per.Burst.per.Electrode
[25] = read-out: ac50 Spheroid.Burst.Frequency
[26] = read-out: ac50 Spheroid.Spike.Amplitude.90th.Percentile
[27] = tcplfit2 BMD at benchmark response (1.349*SD of baseline controls)
[28] = tcplfit2 output ACC, activity cutoff in Supplemental Table 1

In the case of CC1(C)[C@H](C(=O)O[C@H](C#N)c2cccc(Oc3ccccc3)c2)[C@@H]1C=C(Br)Br [Deltamethrin], the EC50 ([1]; 5th percentile across active AC50 values per chemical, read-out: Minimum potency) is reported as 1.6 µM, the “Difference of minimum potency between BrainSphere MEA assay and rNFA” value [1] is reported as ≤ 0.5 log10 µM and the “hitc Mean.Spheroid.Burst.Duration” value [1, 5] is reported as 1. For the same compound, the “hitc Mean.Spheroid.Burst.ISI” value [1, 5] was 1, the “hitc Mean.Spheroid.Burst.Peak.Firing.Rate” value [1, 5] was 1 and the “hitc Mean.Spheroid.Firing.Rate” value [1, 5] was 1. The “hitc Mean.Spheroid.IBI” value [1, 5] was 1, the “hitc Mean.Spheroid.Nonburst.ISI” value [1, 5] was 1 and the “hitc Mean.Spheroid.Spikes.per.Burst” value [1, 5] was 1. The “hitc Mean.Spheroid.Spikes.per.Burst.per.Electrode” value [1, 5] was 1, the “hitc Spheroid.Burst.Frequency” value [1, 5] was 1 and the “hitc Spheroid.Spike.Amplitude.90th.Percentile” value [1, 5] was 1. For the same compound, the EC50 [1, 6] was 1 µM, the EC (benchmark response 1.349 SD) [1, 7] was 7.6 µM and the EC (benchmark response 1.349 SD) [1, 8] was 9.4 µM. For the same compound, the AC50 [1, 9] was 3.3 µM, the AC50 [1, 10] was 8.4 µM and the AC50 [1, 11] was 3.8 µM. The AC50 [1, 12] was 3.5 µM, the AC50 [1, 13] was 10 µM and the AC50 [1, 14] was 9.8 µM. The AC50 [1, 15] was 1.9 µM, the AC50 [1, 16] was 1.4 µM and the AC50 [1, 17] was 5.9 µM. The AC50 [1, 18] was 4 µM, the EC50 [1, 19] was 4.45 µM and the AC50 [1, 20] was 3.31 µM. It also gave an AC50 [1, 21] of 8.39 µM, an AC50 ([1]; read-out: ac50 Mean.Spheroid.Burst.Peak.Firing.Rate) of 3.77 µM and an AC50 [1, 22] of 3.49 µM. The AC50 [1, 23] was 10.4 µM, the AC50 ([1]; read-out: ac50 Mean.Spheroid.Nonburst.ISI) was 9.81 µM and the AC50 ([1]; read-out: ac50 Mean.Spheroid.Spikes.per.Burst) was 1.85 µM. It also gave an AC50 [1, 24] of 1.4 µM, an AC50 [1, 25] of 5.88 µM and an AC50 [1, 26] of 3.97 µM. The EC50 ([1]; mean across active AC50 values per chemical, read-out: Mean potency) was 5.23 µM, the Percent active [1] was 100% and the “BMD Mean.Spheroid.Burst.Duration” value [1, 27] was 1.9 µM. For the same compound, the “BMD Mean.Spheroid.Burst.Peak.Firing.Rate” value [1, 27] was 2.4 µM, the “BMD Mean.Spheroid.Firing.Rate” value [1, 27] was 3.6 µM and the “BMD Mean.Spheroid.IBI” value [1, 27] was 9.6 µM. The “BMD Mean.Spheroid.Spikes.per.Burst” value [1, 27] was 1.2 µM, the “BMD Mean.Spheroid.Spikes.per.Burst.per.Electrode” value [1, 27] was 0.69 µM and the “BMD Spheroid.Burst.Frequency” value [1, 27] was 6 µM. The “BMD Spheroid.Spike.Amplitude.90th.Percentile” value [1, 27] was 1.6 µM, the “ACC Mean.Spheroid.Burst.Duration” value [1, 28] was 1.7 µM and the “ACC Mean.Spheroid.Burst.ISI” value [1, 28] was 7 µM. For the same compound, the “ACC Mean.Spheroid.Burst.Peak.Firing.Rate” value [1, 28] was 2.2 µM, the “ACC Mean.Spheroid.Firing.Rate” value [1, 28] was 5.2 µM and the “ACC Mean.Spheroid.IBI” value [1, 28] was 10 µM. The “ACC Mean.Spheroid.Nonburst.ISI” value [1, 28] was 9.6 µM, the “ACC Mean.Spheroid.Spikes.per.Burst” value [1, 28] was 2 µM and the “ACC Mean.Spheroid.Spikes.per.Burst.per.Electrode” value [1, 28] was 0.92 µM. The “ACC Spheroid.Burst.Frequency” value [1, 28] was 5.1 µM, the “ACC Spheroid.Spike.Amplitude.90th.Percentile” value [1, 28] was 2.2 µM and the Hits [1] was 10. For the same compound, the EC50 ([2]; read-out: Mean potency in the hNNF) was 3.53 µM, the EC50 ([2]; read-out: Minimum potency in the hNNF) was 2.74 µM and the “hitc CCTE_Shafer_MEA_dev_AB” value ([3]; rNFA mc5 hit call, cytotoxicity AlamarBlue) was 0. The “hitc CCTE_Shafer_MEA_dev_LDH” value ([4]; rNFA mc5 hit call, cytotoxicity LDH) was 0.
For ClC1=C(Cl)[C@]2(Cl)[C@@H]3[C@@H]4C[C@@H]([C@H]5O[C@@H]45)[C@@H]3[C@@]1(Cl)C2(Cl)Cl [Dieldrin], the “Difference of minimum potency between BrainSphere MEA assay and rNFA” value [1] was “more than 0.5 log10 µM”, the “hitc Mean.Spheroid.Burst.ISI” value [1, 5] was 1 and the “hitc Mean.Spheroid.Burst.Peak.Firing.Rate” value [1, 5] was 1. The “hitc Mean.Spheroid.Firing.Rate” value [1, 5] was 1, the “hitc Mean.Spheroid.IBI” value [1, 5] was 1 and the “hitc Mean.Spheroid.Nonburst.ISI” value [1, 5] was 0. The “hitc Mean.Spheroid.Spikes.per.Burst” value [1, 5] was 1, the “hitc Mean.Spheroid.Spikes.per.Burst.per.Electrode” value [1, 5] was 1 and the “hitc Spheroid.Burst.Frequency” value [1, 5] was 1. The “hitc Spheroid.Spike.Amplitude.90th.Percentile” value [1, 5] was 1, the EC50 [1, 6] was 9.51 µM and the EC (benchmark response 1.349 SD) [1, 7] was 9.9 µM. It also gave an EC (benchmark response 1.349 SD) [1, 8] of 45 µM, an AC50 [1, 9] of 13 µM and an AC50 [1, 10] of 12 µM. For the same compound, the AC50 [1, 11] was 11.7 µM, the AC50 [1, 12] was 9.5 µM and the AC50 [1, 13] was 28 µM. It also gave an AC50 [1, 14] of 45 µM, an AC50 [1, 15] of 12.3 µM and an AC50 [1, 16] of 11 µM. The AC50 [1, 17] was 9.6 µM, the AC50 [1, 18] was 21 µM and the EC50 [1, 19] was 14.3 µM. It also gave an AC50 [1, 20] of 12.9 µM, an AC50 [1, 21] of 12.2 µM and an AC50 [1, 22] of 9.45 µM. The AC50 [1, 23] was 28.2 µM, the AC50 [1, 24] was 11.2 µM and the AC50 [1, 25] was 9.6 µM. For the same compound, the AC50 [1, 26] was 20.8 µM, the Percent active [1] was 90% and the “BMD Mean.Spheroid.Burst.Peak.Firing.Rate” value [1, 27] was 9.9 µM. For the same compound, the “BMD Mean.Spheroid.Firing.Rate” value [1, 27] was 9.3 µM, the “BMD Mean.Spheroid.IBI” value [1, 27] was 27 µM and the “BMD Mean.Spheroid.Spikes.per.Burst” value [1, 27] was 11 µM. For the same compound, the “BMD Mean.Spheroid.Spikes.per.Burst.per.Electrode” value [1, 27] was 9.9 µM, the “BMD Spheroid.Burst.Frequency” value [1, 27] was 9.8 µM and the “BMD Spheroid.Spike.Amplitude.90th.Percentile” value [1, 27] was 17 µM. The “ACC Mean.Spheroid.Burst.ISI” value [1, 28] was 8.4 µM, the “ACC Mean.Spheroid.Burst.Peak.Firing.Rate” value [1, 28] was 9.6 µM and the “ACC Mean.Spheroid.Firing.Rate” value [1, 28] was 11 µM. The “ACC Mean.Spheroid.IBI” value [1, 28] was 28 µM, the “ACC Mean.Spheroid.Nonburst.ISI” value [1, 28] was 52 µM and the “ACC Mean.Spheroid.Spikes.per.Burst” value [1, 28] was 13 µM. The “ACC Mean.Spheroid.Spikes.per.Burst.per.Electrode” value [1, 28] was 10 µM, the “ACC Spheroid.Burst.Frequency” value [1, 28] was 9.2 µM and the “ACC Spheroid.Spike.Amplitude.90th.Percentile” value [1, 28] was 20 µM. The Hits [1] was 9, the “hitc CCTE_Shafer_MEA_dev_AB” value [3] was 1 and the AC50 ([3]; read-out: ac50 CCTE_Shafer_MEA_dev_AB, rNFA mc5, cytotoxicity AlamarBlue) was 22.4 µM. For the same compound, the “Cytotoxicity in the resazurin assay of the rNFA (in words)” value ([3]; ref Brown et al. [2016], Carstens et al. [2022], Frank et al. [2017b], Shafer et al. [2019], ToxCast invitrodb (v4.2)) was “demonstrating cytotoxicity in the rNFA”, the “hitc CCTE_Shafer_MEA_dev_LDH” value [4] was 1 and the AC50 ([4]; read-out: ac50 CCTE_Shafer_MEA_dev_LDH, rNFA mc5, cytotoxicity LDH) was 11.3 µM.

— paper PMC12198282, “Application of a high-density microelectrode array assay using a 3D human iPSC-derived brain microphysiological system model for in vitro neurotoxicity screening of environmental compounds” (Archives of Toxicology, 2025)
